Source: patent publication US10327423B2, “Antimicrobial compounds and compositions, and uses thereof” (Akeso Biomedical, Inc., priority 2014, dated 2019)
Entries after “also recorded” stand apart in the source; their conditions may differ.

Columns and labels:
[1] = test system: EPEC-AcsrA; assay: BioFlux system, disruption of a mature biofilm; type: cell-based, Escherichia coli; conditions: 20 hours
Method: The mature biofilm was treated with FeTyr at concentrations of 100, 150 and 200 μM for 20 hours and compared to a control biofilm that had just been treated with LB medium 30% v/v. […] Mature biofilm was treated with FeDOPA at a concentration of 100 μM for 20 hours and compared to a control biofilm that had just been treated with LB medium 30% v/v.

[2] = test system: Enteropathogenic E. coli (EPEC) E2348/69; assay: Crystal violet assay of attachment to plastic wells; type: cell-based, Escherichia coli; conditions: FeDOPA 68-250 μM; 48 hours at 37° C.
Method: (§1) Enteropathogenic E. coli (EPEC) E2348/69 were grown in wells for 48 hours at 37° C. in the presence of FeQ (100 μM), and in the absence of FeQ (as control). After 48 hours, the wells were washed in order to remove suspended cells. Crystal violet was then added to each well. The wells were then washed to remove excess dye. A mixture of acetone/ethanol was then added to the wells to re-suspend any cells attached to the plastic surface of the wells, and dissolve any dye present. The presence of dye in each well was then quantified by measuring the O.D. at 570 nm.
as §1, with “FeDOPA (10-250” for “FeQ (100”, “FeDOPA” for “FeQ”

[3] = test system: Enteropathogenic E. coli (EPEC) strain E2348/69; assay: Growth curve of antibiotic resistant EPEC with gentamicin and Fe complex; type: cell-based, Escherichia coli
Method: The impact on the growth curve of antibiotic resistant Enteropathogenic E. coli (EPEC) strain E2348/69 (genotype Wild Type EPEC O17:H6) when grown in the presence of (i) gentamicin (1.25 μM), (ii) Fe-Tyr (100 μM), (iii) gentamicin (1.25 μM) and Fe-Tyr (1.25 μM), and (iv) a control with no gentamicin or Fe-Tyr present was determined.
(§2) The impact on the growth curve of antibiotic resistant Enteropathogenic E. coli (EPEC) strain E2348/69 (genotype Wild Type EPEC O17:H6) when grown in the presence of a fixed concentration of gentamicin (1.25 μM) and an increasing concentration of FeQ versus the strain grown in the presence of only FeQ or only gentamicin, was determined.
as §2, with “FeDOPA” for “FeQ”

[4] = test system: Campylobacter; assay: Campylobacter carriage in chickens (cfu/g of droppings and caeca samples); type: in vivo; conditions: treatment groups 3, 5, 6, 7 (FeQ) and 8 (FeTyr), days 0-42; dirty litter challenge
Method: A study was performed to evaluate growth promotion and reduction of Campylobacter carriage using FeQ and FeTyr in Ross 308 male broilers with 7 treatment groups. Each treatment group comprised four replicates of 10 birds per pen (40 birds/treatment group and 4 pens of 10 birds/treatment group), and there were 2 control groups and 5 test groups. All the test groups and one of the control groups were exposed at day 20 of the trial to dirty litter, which tested positive for Campylobacter. This method was used to provide a more natural method to Campylobacter challenge the birds. Thus there was a positive control where one treatment group was challenged with Campylobacter and one negative control group where the birds were not challenged, and five treatment groups that were all challenged with Campylobacter. The total number of birds used in the 7 treatment groups was 280. Treatment group 1 was a negative control where birds just received the commercial feed, and were not challenged with dirty litter containing Campylobacter. Treatment group 2 was the positive control where the birds received the commercial feed, and were challenged with dirty litter containing Campylobacter at day 20. Treatment group 3 received 0.22 g/L of FeQ in their drinking water and 0.22 g/Kg FeQ in their feed during the entire trial, and was challenged with dirty litter containing Campylobacter at day 20. Treatment group 5 received 0.22 g/L of FeQ in their drinking water during the entire trial, and was challenged with dirty litter containing Campylobacter at day 20. Treatment group 6 received 0.22 g/kg FeQ in their feed during the entire trial, and was challenged with dirty litter containing Campylobacter at day 20. […]
Prior to challenging the chickens with dirty litter containing Campylobacter at day 20, each pen was tested for Campylobacter using cloacal swabs. […] Samples were analyzed for blood chemistry, including analysis for alkaline phosphatase, aspartate amino transferase, alanine amino transferase, gamma-glutamyl transferase, lactate dehydrogenase, total protein, albumin, globulin, amylase and glucose.

[5] = Growth performance of broilers challenged with Campylobacter dirty litter at day 20; type: in vivo, chicken (Ross 308 male broilers); conditions: treatment groups 3, 5, 6, 7 (FeQ) and 8 (FeTyr)
Method: A study was performed to evaluate growth promotion and reduction of Campylobacter carriage using FeQ and FeTyr in Ross 308 male broilers with 7 treatment groups. Each treatment group comprised four replicates of 10 birds per pen (40 birds/treatment group and 4 pens of 10 birds/treatment group), and there were 2 control groups and 5 test groups. All the test groups and one of the control groups were exposed at day 20 of the trial to dirty litter, which tested positive for Campylobacter. This method was used to provide a more natural method to Campylobacter challenge the birds. Thus there was a positive control where one treatment group was challenged with Campylobacter and one negative control group where the birds were not challenged, and five treatment groups that were all challenged with Campylobacter. The total number of birds used in the 7 treatment groups was 280. Treatment group 1 was a negative control where birds just received the commercial feed, and were not challenged with dirty litter containing Campylobacter. Treatment group 2 was the positive control where the birds received the commercial feed, and were challenged with dirty litter containing Campylobacter at day 20. Treatment group 3 received 0.22 g/L of FeQ in their drinking water and 0.22 g/Kg FeQ in their feed during the entire trial, and was challenged with dirty litter containing Campylobacter at day 20. Treatment group 5 received 0.22 g/L of FeQ in their drinking water during the entire trial, and was challenged with dirty litter containing Campylobacter at day 20. Treatment group 6 received 0.22 g/kg FeQ in their feed during the entire trial, and was challenged with dirty litter containing Campylobacter at day 20. Treatment group 7 received 0.022 g/L FeQ in their drinking water during the entire trial, and was challenged with dirty litter containing Campylobacter at day 20. Treatment group 8 received 0.02 g/L FeTyr in their drinking water during the entire trial, and was challenged with dirty litter containing Campylobacter at day 20. The FeTyr was pre-dissolved in DMSO, and diluted to provide a solution of 0.02 g/L of FeTyr in water. (An additional treatment group 4 was terminated due to solubility issues.) […]
The feeding program is show in Table 4. […] All birds were weighed individually and feed weigh backs recorded per pen at day 0, 11, 21, 24 and 42 days.
In order to minimize risk of cross-contamination, standard industry biosecurity measures were used including: disinfecting boots, changing overshoes and gloves between pens/treatments, entering Campylobacter negative pens before entering Campylobacter positive pens, and leaving adjacent pens empty. Daily health, culls, and mortality were recorded. All bird weights were recorded at 0, 11, 21, 24, 33 and 42 days. […]

[6] = test system: EPEC-pgA^++; assay: Crystal violet assay of disruption of a mature biofilm; type: cell-based, Escherichia coli; conditions: FeTyr 100, 150 and 200 μM; 72 hours
Method: A mature biofilm formed by EPEC-pgA^++ was treated with FeTyr for 24, 48 and 72 hours at FeTyr concentrations of 100 μM, 150 μM and 200 μM and the presence of the biofilm after these times was compared to an untreated biofilm (labeled “Control”) using a crystal violet assay. The color of the control wells was more intense in color at 72 hours than those that were treated with FeTyr at 100, 150 and 200 μM for 72 hours.

[7] = test system: mixed population of clinical isolates (PAO Mixed); assay: Growth (OD600) in LB with Amikacin, tolerance to antibiotic; type: cell-based, Pseudomonas aeruginosa; conditions: 34, 100, 200 and 340 μM of FeQ or FePhe; Amikacin 10 µg/ml; 17.5 hours at 37° C.
Method: (§3) To investigate effects upon antibiotic resistance, a laboratory strain of Psuedomonas aeruginosa (PAO1N) and a mixed population of clinical isolates (PAO Mixed) were incubated in Luria-Bertani (LB) media alone, or with different concentrations (34 μM, 100 μM, 200 μM and 340 μM) of FeQ or FePhe.
(§4) Each of the different media, bar one control, contained 10 µg/ml of the aminoglycoside antibiotic Amikacin.
(§5) 10 μl of the bacterial strains were added into each well of a 96-well micro-titer plate, before 290 μl of the relevant media was added to wells. Each different condition was repeated in sextuplicate.
(§6) The plate was incubated at 37° C. within a micro-titer plate reader for 17.5 hours, with the OD600 read every 30 minutes.

[8] = test system: Psuedomonas aeruginosa (PAO1N); assay: as above; type: cell-based, Pseudomonas aeruginosa; conditions: 34, 100, 200 and 340 μM of FeQ or FePhe; Amikacin 10 µg/ml; 17.5 hours at 37° C.
Method: as §3, §4, §5, §6

O=C1[O][Fe]23([NH]C1Cc1ccc(O)c(O)c1)([NH]C(Cc1ccc(O)c(O)c1)C(=O)[O]2)[NH]C(Cc1ccc(O)c(O)c1)C(=O)[O]3 [FeDOPA, a complex of L-DOPA with Fe III (3,4 dihydrophenylalanine)]
dispersion of mature biofilm ([1]; FeDOPA 100 μM): dispersed the biofilm | attachment of EPEC cells to plastic well surface and biofilm formation (crystal violet, O.D. 570 nm) [2]: inhibited | rate of growth relative to gentamicin alone ([3]; gentamicin 1.25 μM and FeDOPA 130, 160, 200 μM): inhibited

O=C1[O][Fe]23([NH]C1Cc1ccc(O)cc1)([NH]C(Cc1ccc(O)cc1)C(=O)[O]2)[NH]C(Cc1ccc(O)cc1)C(=O)[O]3 [FeTyr, a complex of L-tyrosine with Fe III]
dispersion of mature biofilm ([1]; FeTyr 100, 150 and 200 μM): biofilm dispersion increased | average Campylobacter cfu/g of caeca samples at day 42 versus positive control [4]: lower levels of Campylobacter in their caeca; also recorded: performed better than the positive control | rate of growth (growth curve) ([3]; Fe-Tyr 100 μM alone): comparable to the control | rate of growth relative to gentamicin alone ([3]; gentamicin 1.25 μM and Fe-Tyr 1.25 μM): loses its resistance; also recorded: inhibited | ABW at day 42 versus positive control (challenged, untreated) [5]: performed better than the positive control | MFCR at day 42 versus positive control (challenged, untreated) [5]: performed better than the positive control | optical absorbance of crystal violet at 570 nm of remaining mature biofilm versus untreated [6]: significantly lower optical absorbance

A complex of L-phenylalanine with Fe III [Fe-Phe]
tolerance to the aminoglycoside Amikacin (OD600 growth) [7]: reducing tolerance | tolerance to the aminoglycoside Amikacin (OD600 growth) [8]: reducing tolerance
